The values below come from ChEMBL document CHEMBL1201862, “PubChem BioAssay data set” (2004).

Among the test systems are 786-0; ACHN; COLO 205; IGROV-1; MCF7; MDA-MB-231; MDA-MB-435; MDA-N; NCI-H460; NCI-H522; OVCAR-5; SF-295; SF-539; SK-MEL-28; SNB-75; SR; T47D; UACC-62; UO-31; K562.
Holding throughout (experiment): DTP human tumour cell line panel, 48 h

Structures are written as SMILES.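 Results reflect a 48-hour exposure of cells in 96-well plates to compound at five concentrations. The concentration for 50% growth inhibition is given as GI50.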 The source made the active and inactive calls. Cut-off read from the data, not from the text of the source: active = GI50 up to about 1.1 µM and inactive = higher.

What is called GI50 is the concentration giving 50% growth inhibition. For the compound `COc1ccc2c(c1)c1c(C)c3cnccc3c(C)c1n2CCCN`, the GI50 in the assay on 786-0 is 0.0288 µM (active); with ACHN, 0.124 µM (active); in the assay on COLO 205, 0.177 µM (active); with IGROV-1 it was 0.313 µM (active); in the assay with MCF7, 0.251 µM (active); in the assay on MDA-MB-231 it was 0.145 µM (active). In addition, the concentration for 50% growth inhibition (GI50) in the assay on MDA-MB-435 is 0.0502 µM (active); in the assay with MDA-N, 0.114 µM (active); with NCI-H460 it was 0.065 µM (active); in the assay with NCI-H522, 0.313 µM (active); in the assay with OVCAR-5 it was 0.431 µM (active); in the assay with SF-295, 0.257 µM (active). Moreover, the GI50 is 0.405 µM (active) in the assay on SF-539; 0.458 µM (active) in the assay on SK-MEL-28; 0.378 µM (active) in the assay with SNB-75; < 0.01 µM (active) in the assay with SR; 0.284 µM (active) in the assay on T47D; 0.41 µM (active) with UACC-62. Also, the GI50 with UO-31 was 0.524 µM (active).

Regarding `CN(CCC#N)c1ccc(/C=C2\SC(=S)NC2=O)cc1`, the GI50 in the assay on 786-0 was 34.8 µM (inactive); in the assay with ACHN, 62.4 µM (inactive); with COLO 205 it was 48.2 µM (inactive); in the assay with IGROV-1, > 100 µM (inactive); in the assay on K562, 45.4 µM (inactive); with MCF7, 46.6 µM (inactive). The GI50 in the assay with MDA-MB-231 is 56 µM (inactive); with MDA-MB-435, 31.6 µM (inactive); in the assay on MDA-N it was 53.6 µM (inactive); in the assay on NCI-H460, 25.9 µM (inactive); with NCI-H522 it was 71.1 µM (inactive); with OVCAR-5, > 100 µM (inactive). Further, the GI50 is 35.9 µM (inactive) in the assay on SF-295; 49.4 µM (inactive) in the assay with SF-539; 40.1 µM (inactive) with SK-MEL-28; 35 µM (inactive) with SNB-75; 24.3 µM (inactive) in the assay on SR; 51.2 µM (inactive) in the assay with T47D. For the same compound, the GI50 is 19.8 µM (inactive) in the assay with UACC-62 and 27.2 µM (inactive) in the assay on UO-31.

For `CCOC(=O)c1nc2cc(C(F)(F)F)ccc2nc1Oc1ccc(OC)cc1`, the GI50 with 786-0, in the assay with ACHN, in the assay with COLO 205, in the assay on IGROV-1, in the assay on K562 and with MCF7 was > 100 µM (inactive) each time. Besides, the GI50 with MDA-MB-231 was > 100 µM (inactive); with MDA-MB-435 it was > 100 µM (inactive); with MDA-N, > 100 µM (inactive); with NCI-H460, 70.8 µM (inactive); in the assay with NCI-H522 it was 72.4 µM (inactive); with OVCAR-5, > 100 µM (inactive). For the same compound, the GI50 in the assay on SF-295 is > 100 µM (inactive); in the assay on SF-539 it was > 100 µM (inactive); in the assay on SK-MEL-28, > 100 µM (inactive); in the assay on SNB-75, > 100 µM (inactive); with SR, 74.6 µM (inactive); in the assay with T47D, > 100 µM (inactive). Also, the GI50 with UACC-62 and with UO-31 was > 100 µM (inactive) in each case.

As for `CCCCCC(O)C1C(=O)OC(C)C(O)/C=C/C=C/C=C/C=C\C=C(\C)C(O)CC(O)CC(O)CC(O)CC(O)CC(O)CC1O` (stereo not drawn), the GI50 in the assay on 786-0, in the assay with ACHN, in the assay on COLO 205, in the assay with IGROV-1, in the assay with K562 and in the assay on MCF7 was > 50 µM (inactive) throughout. Also, the GI50 with MDA-MB-231, in the assay with MDA-MB-435, with MDA-N, with NCI-H460, with NCI-H522 and in the assay on OVCAR-5 was > 50 µM (inactive) in each case. In addition, the GI50 in the assay with SF-295, with SF-539, with SK-MEL-28, in the assay on SNB-75, with SR and with T47D was > 50 µM (inactive) throughout. The GI50 with UACC-62 and with UO-31 was > 50 µM (inactive) each time.

Take `CN(C)CCCNc1ccc2ncn3c4ccc(O)cc4c(=O)c1c23`: the concentration for 50% growth inhibition (GI50) in the assay on 786-0 was 0.692 µM (active); with ACHN it was 0.158 µM (active); with COLO 205 it was 1.11 µM (active); in the assay on IGROV-1, 0.577 µM (active); in the assay on K562, 1.35 µM (inactive); with MCF7, 0.0964 µM (active). The GI50 is 7.46 µM (inactive) with MDA-MB-231; 4.88 µM (inactive) in the assay on MDA-MB-435; 4.48 µM (inactive) in the assay with MDA-N; 0.105 µM (active) in the assay on NCI-H460; 0.252 µM (active) in the assay on NCI-H522; 3.03 µM (inactive) in the assay on OVCAR-5. The GI50 in the assay on SF-295 was 0.708 µM (active); in the assay on SF-539, 0.506 µM (active); with SK-MEL-28 it was 4.71 µM (inactive); in the assay on SNB-75 it was 0.601 µM (active); in the assay on SR it was < 0.0189 µM (active); in the assay with T47D, 12 µM (inactive). Moreover, the GI50 with UACC-62 was 1.2 µM (inactive); in the assay on UO-31, 1.35 µM (inactive).

`CC(O)C1(CNc2cc(Cl)nc(N)n2)CCCCC1` (stereo not drawn): the GI50 in the assay with 786-0 was > 100 µM (inactive); in the assay on ACHN it was > 100 µM (inactive); in the assay on COLO 205, > 100 µM (inactive); in the assay on IGROV-1, > 100 µM (inactive); with K562, 69.3 µM (inactive); with MCF7 it was 82.2 µM (inactive). Further, the GI50 in the assay on MDA-MB-231 was > 100 µM (inactive); with MDA-MB-435, > 100 µM (inactive); in the assay with MDA-N, > 100 µM (inactive); with NCI-H460 it was > 100 µM (inactive); in the assay with NCI-H522, 55.7 µM (inactive); in the assay on OVCAR-5, > 100 µM (inactive). For the same compound, the GI50 with SF-295 was > 100 µM (inactive); with SF-539 it was > 100 µM (inactive); in the assay on SK-MEL-28, > 100 µM (inactive); with SNB-75, 69.5 µM (inactive); in the assay on SR, 66.1 µM (inactive); in the assay with T47D, 59 µM (inactive). For the same compound, the results for the GI50 with UACC-62 and with UO-31 were > 100 µM (inactive) and 59.2 µM (inactive), respectively.

As to `O=C1OC(C2Cc3ccc4ccccc4c3C2=O)c2ccccc21` (stereo not drawn), the GI50 with 786-0 is 46.3 µM (inactive); in the assay on ACHN, 53.1 µM (inactive); in the assay on COLO 205, > 100 µM (inactive); in the assay with IGROV-1, 39.4 µM (inactive); in the assay on K562 it was 57.7 µM (inactive); with MCF7, 42.8 µM (inactive). The GI50 was > 100 µM (inactive) in the assay with MDA-MB-231; 51.9 µM (inactive) in the assay on MDA-MB-435; 57.5 µM (inactive) in the assay on MDA-N; 49.7 µM (inactive) in the assay with NCI-H460; 36.9 µM (inactive) with NCI-H522; > 100 µM (inactive) in the assay with OVCAR-5. The GI50 in the assay with SF-295 is 32.4 µM (inactive); with SF-539, 21.6 µM (inactive); with SK-MEL-28, 55.5 µM (inactive); with SNB-75, 32.3 µM (inactive); with SR, 35.2 µM (inactive); in the assay with T47D it was 63 µM (inactive). The GI50 in the assay with UACC-62 was 33.7 µM (inactive); in the assay with UO-31 it was 71.3 µM (inactive).

Consider `OCc1cc2c(ccc3sc4ccc5sc6ccc7ncccc7c6c5c4c32)s1`, for which the GI50 in the assay on 786-0 was 3.55 µM (inactive); in the assay on ACHN, 31.6 µM (inactive); with COLO 205 it was 2.72 µM (inactive); in the assay with IGROV-1 it was 7.29 µM (inactive); in the assay with K562, 22.4 µM (inactive); with MCF7, 17.8 µM (inactive). Further, the GI50 in the assay with MDA-MB-231 was 4.17 µM (inactive); in the assay on MDA-MB-435, 24.3 µM (inactive); in the assay on MDA-N, 10.3 µM (inactive); with NCI-H460, 7.08 µM (inactive); in the assay with NCI-H522 it was 11 µM (inactive); with OVCAR-5 it was 15.3 µM (inactive). Moreover, the GI50 is 12.5 µM (inactive) with SF-295; 14.4 µM (inactive) in the assay on SF-539; 27.2 µM (inactive) with SK-MEL-28; 3.89 µM (inactive) in the assay with SNB-75; 10.5 µM (inactive) in the assay on SR; 8.22 µM (inactive) in the assay on T47D. Besides, the GI50 in the assay on UACC-62 is 7.45 µM (inactive); in the assay with UO-31, 2.11 µM (inactive).

As for `Nc1ncnc2c1ncn2C1OC(C(=O)OCCO)C(O)C1O` (stereo not drawn), the GI50 in the assay on 786-0, in the assay with ACHN, with COLO 205, with IGROV-1, in the assay with K562 and in the assay with MCF7 was > 100 µM (inactive) throughout. For the same compound, the GI50 with MDA-MB-231, with MDA-MB-435, in the assay with MDA-N, with NCI-H460, with NCI-H522 and with OVCAR-5 was > 100 µM (inactive) throughout. The GI50 in the assay on SF-295, in the assay with SF-539, with SK-MEL-28, in the assay on SNB-75, in the assay on SR and in the assay on T47D was > 100 µM (inactive) in each case. Also, the GI50 in the assay on UACC-62 and in the assay with UO-31 was > 100 µM (inactive) each time.

As to `COC1/C=C/C(C)C(OC)CC(O)/C=C/C(C)C(C(C)C(OC)C(C)CCC(=O)C(C)C(C/C=C/N(C)C=O)OC)OC(=O)/C=C/C=C(\C)CC(OC)C(OC)C2=CC(=O)O[C@@H](C(C)C(OC)C1)[C@H]2O` (stereo partly drawn), the GI50 is 0.0442 µM (active) with 786-0; 0.0367 µM (active) in the assay on ACHN; 0.0205 µM (active) in the assay on COLO 205; 0.0341 µM (active) in the assay on IGROV-1; 0.0251 µM (active) in the assay with MCF7; 0.0366 µM (active) in the assay on MDA-MB-231. Further, the GI50 with MDA-MB-435 was 0.0532 µM (active); in the assay with MDA-N, 0.0507 µM (active); in the assay on NCI-H460, 0.0172 µM (active); with NCI-H522, 0.0295 µM (active); with OVCAR-5, 0.0479 µM (active); with SF-295 it was 0.0345 µM (active). Moreover, the GI50 with SF-539 is 0.0313 µM (active); in the assay with SK-MEL-28 it was 0.0446 µM (active); with SNB-75, 0.034 µM (active); in the assay with SR, 0.0617 µM (active); in the assay with T47D, 0.0571 µM (active); with UACC-62, 0.0571 µM (active). Also, the GI50 with UO-31 is 0.0419 µM (active).
